# Like-named read-outs stand apart in the source and are kept apart here.
# Tests used:
# rGmolCSP8 = rGmolCSP8 (Grapholita molesta, UniProt A0A0M4FML8); test: Fluorescence competitive binding assay (1-NPN displacement), wild-type; details: for binding to rGmolCSP8 (in words): wild-type rGmolCSP8, pH 7.4
# Procedure: The fluorescence spectra were recorded using a fluorescence spectrophotometer (F-4500, Hitachi, Tokyo, Japan) in a 1 cm light path fluorimeter quartz cuvette with 10 nm slits for excitation and 20 nm slits for emission. […] The fluorescent probe N-phenyl-1-naphthylamine (1-NPN) and all putative ligands used in binding assays were dissolved in methanol (HPLC purity grade) to obtain a 1 mM stock solution. The rGmolCSP8 protein was diluted to in 20 mM Tris–HCl to obtain a 2 μM solution, pH 7.4. […] The fluorescent probe was excited at 337 nm and emission spectra were recorded from 370 to 550 nm. […] Binding data were obtained from three replicates assays for each concentration of each tested ligand.
# GmolCSP8-T27A = GmolCSP8-T27A (Grapholita molesta, UniProt A0A0M4FML8, T42A); test: biochemical; assay type: binding; details: for fold decrease in binding vs wild-type: mutant T27A compared with wild-type rGmolCSP8
# GmolCSP8-T27A, sequence (A0A0M4FML8 entry or part of it T42A): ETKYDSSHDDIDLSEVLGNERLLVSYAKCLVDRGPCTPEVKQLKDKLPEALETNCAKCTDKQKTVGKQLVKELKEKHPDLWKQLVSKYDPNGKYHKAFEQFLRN
# Procedure: (§1) To determine whether GmolCSP8 is involved in odorant binding, fluorescence competitive binding assays were performed ([Zhong et al., 2012]). The fluorescence spectra were recorded using a fluorescence spectrophotometer (F-4500, Hitachi, Tokyo, Japan) in a 1 cm light path fluorimeter quartz cuvette with 10 nm slits for excitation and 20 nm slits for emission. The selected chemicals are listed in Table 2, and included four sex pheromone components and 34 volatiles from different host plants (peach and pear trees) of G. molesta based on previous investigations ([Natale et al., 2004]; [Lu et al., 2012]; [Najar-Rodriguez et al., 2013b]). The fluorescent probe N-phenyl-1-naphthylamine (1-NPN) and all putative ligands used in binding assays were dissolved in methanol (HPLC purity grade) to obtain a 1 mM stock solution. The rGmolCSP8 protein was diluted to in 20 mM Tris–HCl to obtain a 2 μM solution, pH 7.4. To measure the binding affinity of 1-NPN for GmolCSP8, a 2 μM solution of protein was titrated with aliquots of 1 mM 1-NPN prepared to final concentrations ranging from 1 to 22 μM. The fluorescent probe was excited at 337 nm and emission spectra were recorded from 370 to 550 nm. […] Binding data were obtained from three replicates assays for each concentration of each tested ligand. Dissociation constants (Kd) of protein to 1-NPN were calculated by non-linear regression, using GraphPad Prism 4.00 software (GraphPad Software Inc.). The inhibition constants (Ki) of the competitors were determined using the corresponding IC50 values (concentration of competitor that reduced the initial fluorescence intensity by half) based on the following equation: Ki = [IC50]/(1+[1-NPN]/K1-NPN), where [1-NPN] is the free concentration of 1-NPN and K1-NPN is the dissociation constant of the complex GmolCSP8/1-NPN.
# (§2) To verify the four predicted key amino acid sites of GmolCSP8 binding for 1-hexanol, recombinant plasmids for four CSP8 mutants were obtained via site-directed mutagenesis experiments. Specific primers introducing mutation sites of the four key amino acid CSP8 plasmids (GmolCSP8-T27A, GmolCSP8-L30A, GmolCSP8-V40A, and GmolCSP8-L80A) were designed and are listed in Table 1. The four mutants were mutated by using the TaKaRa MutanBEST Kit (TaKaRa, Shiga, Japan) with the pMD®19-T/GmolCSP8 plasmid DNA as template. All plasmids containing mutations were validated by sequencing with five randomly selected single colonies. pMD®19-T plasmids including four CSP8 mutants were digested with Bam HI and Hind III restriction enzymes. Then, the target sequences were ligated into the expression vector pET28a (+) and transformed into BL21 (DE3) competent cells for expression. After sequencing verification, the corresponding rGmolCSP8 mutant proteins were induced and purified, and the binding affinities to 1-hexanol and its analogs were verified via ligand-binding assays according to the method described above.
# GmolCSP8-L80A = GmolCSP8-L80A (Grapholita molesta, UniProt A0A0M4FML8, L95A); test: biochemical; assay type: binding
# GmolCSP8-L80A, sequence (A0A0M4FML8 entry or part of it L95A): as the sequence (A0A0M4FML8 entry or part of it T42A) above, with A27T, L80A counted along it
# Procedure: as §1, §2
# GmolCSP8-V40A = GmolCSP8-V40A (Grapholita molesta, UniProt A0A0M4FML8, V55A); test: biochemical; assay type: binding
# GmolCSP8-V40A, sequence (A0A0M4FML8 entry or part of it V55A): as the sequence (A0A0M4FML8 entry or part of it T42A) above, with A27T, V40A counted along it
# Procedure: as §1, §2
# GmolCSP8-L30A = GmolCSP8-L30A (Grapholita molesta, UniProt A0A0M4FML8, L45A); test: biochemical; assay type: binding
# GmolCSP8-L30A, sequence (A0A0M4FML8 entry or part of it L45A): as the sequence (A0A0M4FML8 entry or part of it T42A) above, with A27T, L30A counted along it
# Procedure: as §1, §2
# [1] = 2 μM rGmolCSP8 and 2 μM 1-NPN, 20 mM Tris-HCl pH 7.4, read-out: IC50
# [2] = 2 μM rGmolCSP8 and 2 μM 1-NPN, pH 7.4, calculated from IC50, read-out: Ki
# [3] = mutant L30A compared with wild-type
# [4] = read-out: Ki (μM) L30A; mutant L30A; – = lost ability to bind
# rGmolCSP8, sequence (A0A0M4FML8 entry or part of it): as the sequence (A0A0M4FML8 entry or part of it T42A) above, with A27T counted along it
Compound,IC50 (rGmolCSP8; [1]),Ki (rGmolCSP8; [2]),other results
CCCCCC(=O)OCC [Ethyl hexanoate],> 24 µM,> 24 µM,
CCCCCCCCCCCCCCCC [Hexadecane],> 24 µM,> 24 µM,
CCCCCCC(=O)OCC [Ethyl heptanoate],> 24 µM,> 24 µM,
CC/C=C\CCOC(C)=O [Cis-3-hexenyl acetate],> 24 µM,> 24 µM,binding to rGmolCSP8 (in words) (rGmolCSP8): cannot bind
CCCCCCCCCC [Decane],> 24 µM,> 24 µM,
O=Cc1ccccc1 [Benzaldehyde],,,IC50 (rGmolCSP8): > 24 µM; Ki (rGmolCSP8): > 24 µM; binding to rGmolCSP8 (in words) (rGmolCSP8): cannot bind
CCC/C=C\CCCCCCCO [(Z)-8-dodecenyl alcohol],> 24 µM,> 24 µM,
CCCCCCCCCCCCCCCCCC [Octadecane],> 24 µM,> 24 µM,
COC(=O)c1ccccc1O [Methyl salicylate],> 24 µM,> 24 µM,
CCCCO [1-butanol],7.32 ± 0.56 µM,6.65 ± 0.52 µM,"Ki (rGmolCSP8; Table 3, wild-type rGmolCSP8, read-out: Ki (μM) Wild-Type): 6.65 ± 0.52 µM; IC50 (GmolCSP8-T27A; mutant T27A, ligands up to 24 μM, read-out: ligand concentration displacing 50% 1-NPN from CSP8-T27A/1-NPN complex): > 24 µM; Ki (GmolCSP8-T27A; mutant T27A, – = did not displace 50% 1-NPN at ligand up to 24 μM, read-out: Ki (μM) T27A): > 24 µM; Ki (GmolCSP8-L80A; mutant L80A, read-out: Ki (μM) L80A): 6.75 ± 0.57 µM; Ki (GmolCSP8-V40A; mutant V40A, read-out: Ki (μM) V40A): 8.07 ± 0.61 µM; Ki (GmolCSP8-L30A; mutant L30A; – = lost ability to bind; read-out: Ki (μM) L30A): 17.1 ± 1.05 µM"
CCCCCCCO [1-heptanol],6.79 ± 0.56 µM,6.2 ± 0.42 µM,Ki (GmolCSP8-T27A): 9.01 ± 0.9 µM; fold decrease in binding vs wild-type (GmolCSP8-T27A): 1.5- to 2.0 fold; Ki (GmolCSP8-L80A): 6.02 ± 0.66 µM; Ki (GmolCSP8-V40A): 9.68 ± 0.75 µM; binding to mutant L30A (in words) (GmolCSP8-L30A; [3]): lost its ability to bind; Ki (GmolCSP8-L30A; [4]): > 24 µM
CCCCOC(C)=O [Butyl acetate],,,IC50 (rGmolCSP8): > 24 µM; Ki (rGmolCSP8): > 24 µM
CCCCCCCCCC=O [Decanal],> 24 µM,> 24 µM,
CCCCCCCCCCO [1-decanol],7.16 ± 0.58 µM,6.6 ± 0.54 µM,Ki (GmolCSP8-T27A): 12.7 ± 1.79 µM; fold decrease in binding vs wild-type (GmolCSP8-T27A): 1.5- to 2.0 fold; Ki (GmolCSP8-L80A): 6.32 ± 0.65 µM; Ki (GmolCSP8-V40A): 7.02 ± 0.47 µM; binding to mutant L30A (in words) (GmolCSP8-L30A; [3]): lost its ability to bind; Ki (GmolCSP8-L30A; [4]): > 24 µM
CC/C=C\CC1C(=O)CCC1CC(=O)OC (centres unmarked) [Methyl jasmonate],> 24 µM,> 24 µM,
CCCCOC(=O)CCC [Butyl butyrate],> 24 µM,> 24 µM,
CC1=CCC2CC1C2(C)C (stereo not drawn) [α-Pinene],> 24 µM,> 24 µM,binding to rGmolCSP8 (in words) (rGmolCSP8): cannot bind
CC(=O)OCCC(C)C [Isoamyl acetate],> 24 µM,> 24 µM,
CC/C=C\CCO [Cis-3-hexen-1-ol],9.14 ± 0.73 µM,8.51 ± 0.68 µM,
